Results taken from patent publication US4254111A, “Sterolin products” (Roecar Holdings (Netherlands Antilles) NV, priority 1978, dated 1981).
≈ marks a conversion by molar mass, not a printed value.

Experiments:
[1] = Oral toxicity studies in primates (acute and prolonged daily dosing); assay type: in vivo
Method: (§1) Preferred daily doses of the compounds of this invention depend on the purpose for which they are used, administered or applied and also whether they are given by oral or parenteral routes or applied topically. […] They may be toxic when administered in large amounts and therefore the oral route is preferred. […] If taken for prophylactic purposes by healthy individuals a daily dose of 0.01-0.1 mg is adequate, although this may be raised to 0.2-1 mg for elderly people. Depending on the severity of a degenerative disease daily doses of 0.3-44 mg may be used for initial treatment until on improvement of the particular condition, a maintenance dose of 0.03-0.6 mg per day is advisable. Lower daily doses are required when these compounds are administered parenterally (e.g. via an intravenous drip). It should be noted that with respect to animals a preferred dose is difficult to predict since it is known that marked differences exist between species and even various breeds or strains of animals in their ability to utilise or react to steroidal glycosides (44-46).

[2] = Oral toxicity studies in rats (acute and prolonged daily dosing); assay type: in vivo
Method: as §1

[3] = Acute toxicity after a single oral or parenteral dose; assay type: in vivo, male Sprague-Dawley rats; conditions: intraperitoneal, after 7 days
Method: (§2) The test substance was suspended in a 1% m/v Tylose® solution made up with distilled water. The selected test doses of the compounds were administered by force feeding at the rate of 1.0 ml/100 g body weight 24.0 hrs and 1.0 hour before the intra-plantar administration of the phlogegenic agent. Brewer's Yeast served as the inflammation-inducing substance and was injected at the rate of 0.1 ml of a 2% suspension made up in sterile saline into the right hind paw. (The left hind paw was injected with 0.1 ml saline only and served as the control foot.)
Male rats of Sprague-Dawley strain and with a weight of 250-350 g were injected intraperitoneally with 0.1-0.5 ml/100 g body weight of an aqueous solution or suspension. Oral administration was carried out as described under (a). Examination of the acute toxicity was carried out after 7 days.

Water solubility = assay type: physicochemical; conditions: for Solubility in g per l water at 25° C, white gel / thick syrup / solubility: water
Method: It is primarily for the purpose of providing water solubility to the steryl monosaccharides that the compounds of this invention, the dicarboxylic acid half ester derivatives and their salts, were prepared.
A solution of succinic anhydride (8.6 g, 0.086 mole) and anhydrous sitosteryl β-D-glucoside (24.7 g, 0.043 mole) in anhydrous pyridine (90 ml) was refluxed for 30 minutes and then left to stand for 20 hrs before it was poured into vigorously stirred conc. hydrochloric acid (104 ml) at ice temperature. The mixture was allowed to stand for 2 hrs before the precipitated hemiester was gravity filtered. The collected solid, washed with iced water until the washings were neutral, was dried in a vacuum oven and a small sample of this was dried to constant weight for a C and H analysis.
The standard preparation of the sterolin dicarboxylic acid hemiester salts illustrated by the preparation of the disodium salt of sitosteryl β-D-glucoside dihemisuccinate. The wet sitosteryl β-D-glucoside dihemisuccinate washed clear of hydrochloric acid as described in Example 1 was transferred quantitatively into a sodium bicarbonate solution (200 ml water; 7.2 g or 0.086 mole NaHCO3). This mixture cooled to 0° C. was slowly poured with vigorous stirring into ice cold acetone (2000 ml) and the white precipitate of the salt was allowed to settle over 18 hrs in an ice chest before it was filtered under suction. The moist salt was thoroughly stirred into ice cold acetone (200 ml), the slurry suction filtered and the filter cake washed with cold ether before the product was dried in a vacuum oven at 40° C. for 48 hrs followed by 2×1 minute heating in a microoven.

[4] = tested on: rat paw-oedema / inflammation (Brewer's Yeast); assay: Anti-inflammatory effect, Brewer's Yeast rat paw oedema, oral administration; assay type: in vivo, male Sprague-Dawley rats
Method: Twenty male Sprague-Dawley rats, (original supplier: Blue Spruce; Altamont U.S.A.) weighing 240-260 g, were acclimatized for at least 10 days to the test environment.
as §2
(§3) Ten animals were killed 5 hours after the challenge in order to determine the effect of the test substance on the accute inflammatory process. The remaining members of the group were sacrificed after 24 hours and used to assess the effect of the test compound on the secondary, residual inflammatory action of yeast. The average amount of oedema and swelling produced in the right foot by yeast was obtained by subtracting the weight of the foot from the weight obtained of the control (saline) side. The results obtained from the treated groups were compared to the relevant control groups which received a similar volume of the aqueous Tylose®-solution only and the difference was expressed as a percentage increase or decrease over the control value.

[5] = in vivo, ip
[6] = tested on: rat paw-oedema / inflammation (Brewer's Yeast); assay: Anti-inflammatory effect, Brewer's Yeast rat paw oedema, intraperitoneal administration; assay type: in vivo, male Sprague-Dawley rats
Method: as §3, with “side.” for “side. The results obtained from the treated groups were compared to the relevant control groups which received a similar volume of the aqueous Tylose®-solution only and the difference was expressed as a percentage increase or decrease over the control value.”
Groups of 20 male Sprague-Dawley rats, weighing 250 (±10 g) were acclimatized to the test environment. The test compound was made up in physiological saline at concentrations allowing the selected dose to be administered intraperitoneally at the rate of 0.1 ml/100 g body weight.
The test agent was administered 1.0 hour before the challenge with Brewer's Yeast. Otherwise the test procedure described under (a) was followed.

Molecule: sitosteryl β-D-glucoside dihemisuccinate [S.G. dihemisuccinate]
- Tolerance of prolonged daily doses ([1]; in vivo): well tolerated
- Acute toxicity studies, toxic effects ([1]; primates, oral, even in excess of 1000-2000 mg/kg): no toxic effects
- Tolerance of prolonged daily doses ([2]; rat, in vivo): well tolerated
- Acute toxicity studies, toxic effects ([2]; rats, oral, even in excess of 1000-2000 mg/kg): no toxic effects
- Acute toxicity after a single dose (% at dose) ([3]; 100 mg/kg): 25%
- Solubility (state or result in words) (Water solubility): colloidal
- Solubility in g per l water at 25° C, white gel / thick syrup (Water solubility): 5×10^2 g per l
- solubility (Water solubility): 1,25×10^3 g/l

Molecule: CC[C@H](CC[C@@H](C)[C@H]1CC[C@H]2[C@@H]3CC=C4C[C@@H](O[C@@H]5O[C@H](CO)[C@@H](O)[C@H](O)[C@H]5O)CC[C@]4(C)[C@H]3CC[C@]12C)C(C)C [S.G., sitosteryl β-D-glucoside, reference compound]
- solubility (Water solubility): 0.009 mg/mL (≈ 15.6 µM)

Molecule: disodium salt of sitosteryl β-D-glucoside dihemisuccinate [S.G. dihemisuccinate Na2 salt]
- Average percentage reduction of rat paw-oedema / inflammation ([4]; 500 mg/kg given 24,0 and 1,0 hour before challenge, after 5 hours): 8,5%
- Average percentage reduction of rat paw-oedema / inflammation ([4]; 500 mg/kg given 24,0 and 1,0 hour before challenge, after 24 hours): 10,7%
- Average percentage reduction of rat paw-oedema / inflammation ([4]; 1000 mg/kg given 24,0 and 1,0 hour before challenge, after 5 hours): 14,5%
- Average percentage reduction of rat paw-oedema / inflammation ([4]; 1000 mg/kg given 24,0 and 1,0 hour before challenge, after 24 hours): 18,5%
- Adverse effects and tissue toxicity [5]: fewer adverse effects coupled with a lower tissue toxicity
- Solubility in g per l water at 25° C, white gel / thick syrup (Water solubility): 5×10^2 g per l
- solubility (Water solubility): 2000 mg/mL
- Average percentage reduction of rat paw-oedema / inflammation ([6]; single dose 25 mg/kg 1 hour before challenge, after 5 hours): 27%
- Average percentage reduction of rat paw-oedema / inflammation ([6]; single dose 25 mg/kg 1 hour before challenge, after 24 hours): 14%
- Average percentage reduction of rat paw-oedema / inflammation ([6]; single dose 50 mg/kg 1 hour before challenge, after 5 hours): 47%
- Average percentage reduction of rat paw-oedema / inflammation ([6]; single dose 50 mg/kg 1 hour before challenge, after 24 hours): 35%

Molecule: CC[C@H](CC[C@@H](C)[C@H]1CC[C@H]2[C@@H]3CC=C4C[C@@H](O[C@@H]5O[C@H](CO)[C@@H](O[C@H]6O[C@H](CO)[C@@H](O)[C@H](O)[C@H]6O)[C@H](O)[C@H]5O)CC[C@]4(C)[C@H]3CC[C@]12C)C(C)C [S.M., sitosteryl β-D-maltoside, reference compound]
- solubility (Water solubility): 0.38 mg/mL (≈ 514 µM)

Molecule: CCC(CCC(C)C1CCC2C3CC=C4CC(OC5OC(COC(=O)CCC(=O)O)C(OC(=O)CCC(=O)O)C(OC(=O)CCC(=O)O)C5OC(=O)CCC(=O)O)CCC4(C)C3CCC12C)C(C)C (stereo not drawn) [S.G. tetrahemisuccinate]
- Acute toxicity after a single dose (% at dose) ([3]; 100 mg/kg): 20%
- Acute toxicity after a single dose (% at dose) ([3]; 200 mg/kg): 100%
- Reduction of the inflammatory response in the rat-paw oedema trials in % ([6]; (50) mg/kg body weight, TABLE 2, time not given): -46.3%
